Numbers after ± are expanded uncertainties.

This note sets out measurements from the NIST ThermoML archive (doi:10.1021/acs.jced.5b01104).

For this data set the following is noted: Liquid, Chromatography.

Regarding `O` [water], the vapor or sublimation pressure – broadly, the equilibrium pressure above the liquid or solid – (412.6 K) turned out to be 356 ± 28 kPa; the “vapor or sublimation pressure” value (443.2 K) is given as 792 ± 62 kPa; the “vapor or sublimation pressure” value (483.2 K) was 1902 ± 150 kPa.
